This is an account of results in US20240166652A1, “MODULATORS OF THE INTEGRATED STRESS PATHWAY” (Calico Life Sciences LLC, priority 2017, published 2024).

The assay has as its system ATF4 luciferase reporter in HEK293T cells. Description: ATF4-Luc assay (ATF4 luciferase reporter, tunicamycin-treated HEK293T cells). It is filed as cell-based, human. Particulars: Homo sapiens, HEK-293T; HEK293T cells carrying the ATF4 luciferase reporter, 1 μg/mL tunicamycin, 7 hours. (In a reporter assay the amount or activity of a reporter protein is the signal.)

pEC50: −log10 of the molar value.

As usually defined, the pEC50 is −log10 of the EC50, conventionally taken in molar units. With `NCc1ccc(OCC(=O)NC23CC(NC(=O)COc4ccc(Cl)c(F)c4)(C2)C3)cn1` [Compound 259, 2-{[6-(aminomethyl)pyridin-3-yl]oxy}-N-{3-[2-(4-chloro-3-fluorophenoxy)acetamido]bicyclo[1.1.1]pentan-1-yl}acetamide], the negative-log EC50 (pEC50) was 6.30 to 6.60.
Next, `O=C(COCc1ccc(OC(F)F)nc1)NC12CC(NC(=O)COc3ccc(Cl)c(F)c3)(C1)C2` [Compound 279, 2-(4-chloro-3-fluorophenoxy)-N-[3-(2-{[6-(difluoromethoxy)pyridin-3-yl]methoxy}acetamido)bicyclo[1.1.1]pentan-1-yl]acetamide]: 6.30 to 6.60.
With `O=C(COc1ccc(Cl)c(F)c1)NC12CC(NC(=O)OCCc3cccc(Cl)c3)(C1)C2` [Compound 165, 2-(3-chlorophenyl)ethyl {3-[2-(4-chloro-3-fluorophenoxy)-acetamido]bicyclo[1.1.1]pentan-1-yl}carbamate] the figure was 6.60 to 7.30.
In the case of `O=C(COc1ccc(Cl)c(F)c1)N[C@@H]1[C@@H]2CC[C@@](NC(=O)COc3ccc(Cl)c(F)c3)(C2)C[C@H]1O` (racemic) [Compound 625, rac-N,N′-[(1R,3R,4R,5R)-3-hydroxybicyclo[3.2.1]octane-1,4-diyl]bis[2-(4-chloro-3-fluorophenoxy)acetamide]], the pEC50 was over 8.00.
With `O=C(/C=C/c1cccnc1)NC12CC(NC(=O)COc3ccc(Cl)c(F)c3)(C1)C2` [Compound 352, (2E)-N-{3-[2-(4-chloro-3-fluorophenoxy)acetamido]bicyclo[1.1.1]pentan-1-yl}-3-(pyridin-3-yl)prop-2-enamide] the figure was 5.70 to 6.30.
With `Cn1cc(OCC(=O)NC23CCC(NC(=O)COc4ccc(Cl)c(F)c4)(CC2)C[C@@H]3O)cn1` [Compound 658, 2-(4-chloro-3-fluorophenoxy)-N-[(3S)-3-hydroxy-4-{2-[(1-methyl-1H-pyrazol-4-yl)oxy]acetamido}bicyclo[2.2.2]octan-1-yl]acetamide] the figure was 6.60 to 7.30.
Next, `O=C(COc1ccc(Cl)c(O)c1)NC12CCC(NC(=O)COc3ccc(Cl)c(F)c3)(CC1)[C@@H](O)C2` [Compound 574, 2-(4-chloro-3-fluorophenoxy)-N-{(2S)-4-[2-(4-chloro-3-hydroxyphenoxy)acetamido]-2-hydroxybicyclo[2.2.2]octan-1-yl}acetamide]: over 8.00; `O=C(COc1ccc(C(F)(F)F)c(F)c1)NC12CCC(NC(=O)COc3ccc(C(F)(F)F)c(F)c3)(CC1)[C@@H](O)C2` [Compound 821, N,N′-[(2S)-2-hydroxybicyclo[2.2.2]octane-1,4-diyl]bis{2-[3-fluoro-4-(trifluoromethyl)phenoxy]acetamide}]: over 8.00.
For the molecule `O=C(COc1ccc(Cl)c(F)c1)NC12CCC(NC(=O)COc3ccccn3)(C1)C2` [Compound 404, 2-(4-chloro-3-fluorophenoxy)-N-(4-{2-[(pyridin-2-yl)oxy]acetamido}bicyclo[2.1.1]hexan-1-yl)acetamide], the pEC50 is 5.70 to 6.30.
`Cc1cccc(OCC(=O)NC23CCC(NC(=O)COc4ccc(Cl)c(F)c4)(CC2)[C@@H](O)C3)c1` [Compound 467, 2-(4-chloro-3-fluorophenoxy)-N-{(2S)-2-hydroxy-4-[2-(3-methylphenoxy)acetamido]bicyclo[2.2.2]octan-1-yl}acetamide]: the pEC50 is over 8.00.
With `O=C(COc1ccc(Cl)c(F)c1)N[C@@]12CC[C@@](NC(=O)COc3ccc(Cl)c(F)c3)(C[C@@H]1O)[C@@H](O)C2` (racemic) [Compound 552, rac-N,N′-[(1R,2S,4R,5S)-2,5-dihydroxybicyclo[2.2.2]octane-1,4-diyl]bis[2-(4-chloro-3-fluorophenoxy)acetamide]], the negative logarithm of the EC50 (pEC50) was over 8.00.
Consider `O=C(COCCc1cccc(Cl)c1)NC12CC(NC(=O)COc3ccc(Cl)c(F)c3)(C1)C2` [Compound 133, 2-(4-chloro-3-fluorophenoxy)-N-(3-{2-[2-(3-chlorophenyl)ethoxy]acetamido}-bicyclo[1.1.1]pentan-1-yl)acetamide], for which the negative logarithm of the EC50 (pEC50) was 6.60 to 7.30.
With `O=C(COc1ccc(Cl)c(F)c1)NC12CCC(OCc3ccc(Cl)cc3)(CC1)CC2=O` [Compound 564, 2-(4-chloro-3-fluorophenoxy)-N-{4-[(4-chlorophenyl)methoxy]-2-oxobicyclo[2.2.2]octan-1-yl}acetamide] the figure was under 5.70.
For the molecule `O=C(COc1ccc(Cl)c(F)c1)NC12CCC(NC(=O)COc3ccc(Cl)cn3)(CC1)[C@@H](O)C2` [Compound 640, 2-(4-chloro-3-fluorophenoxy)-N-[(3S)-4-{2-[(5-chloropyridin-2-yl)oxy]acetamido}-3-hydroxybicyclo[2.2.2]octan-1-yl]acetamide], the pEC50 is over 8.00.
With `O=C(CCCOc1cccc(Cl)c1)NC12CC(NC(=O)COc3ccc(Cl)c(Cl)c3)(C1)C2` [Compound 168, 4-(3-chlorophenoxy)-N-{3-[2-(3,4-dichlorophenoxy)acetamido]-bicyclo[1.1.1]pentan-1-yl}butanamide] the figure was 6.60 to 7.30.
In the case of `O=C(COc1ccc(Cl)c(F)c1)NC12CCC(NC(=O)Cc3ccncc3)(CC1)C(O)C2` (stereo not drawn) [Compound 328, 2-(4-chloro-3-fluorophenoxy)-N-{3-hydroxy-4-[2-(pyridin-4-yl)acetamido]bicyclo[2.2.2]octan-1-yl}acetamide], the pEC50 is under 5.70.
`COc1ccc(OCC(=O)NC23CC(NC(=O)COc4ccc(Cl)c(F)c4)(C2)C3)c(C)n1` [Compound 252, 2-(4-chloro-3-fluorophenoxy)-N-(3-{2-[(6-methoxy-2-methylpyridin-3-yl)oxy]acetamido}bicyclo[1.1.1]pentan-1-yl)acetamide]: the negative logarithm of the EC50 (pEC50) is 6.60 to 7.30.
Regarding `CN(C(=O)COc1ccc(C(F)(F)F)nc1)C12CCC(NC(=O)COc3ccc(Cl)c(F)c3)(CC1)C[C@@H]2O` [Compound 377, N-{(2S)-4-[2-(4-chloro-3-fluorophenoxy)acetamido]-2-hydroxybicyclo[2.2.2]octan-1-yl}-N-methyl-2-{[6-(trifluoromethyl)pyridin-3-yl]oxy}acetamide], the pEC50 was 5.70 to 6.30.
As to `O=C(COc1ccc(C2CC2)nc1)NC12CC(NC(=O)COc3ccc4c(c3)OC(F)(F)O4)(C1)C2` [Compound 268, 2-[(6-cyclopropylpyridin-3-yl)oxy]-N-(3-{2-[(2,2-difluoro-2H-1,3-benzodioxol-5-yl)oxy]acetamido}bicyclo[1.1.1]pentan-1-yl)acetamide], the negative-log EC50 (pEC50) was 7.30 to 8.00.
As to `O=C(COc1ccc(Cl)c(F)c1)N[C@H]1C(=O)C[C@@]2(NC(=O)COc3ccc(Cl)c(F)c3)CC[C@@H]1C2` [Compound 652, N,N′-[(1R,4R,5R)-3-oxobicyclo[3.2.1]octane-1,4-diyl]bis[2-(4-chloro-3-fluorophenoxy)acetamide]], the pEC50 was 7.30 to 8.00.
In the case of `O=C(COc1ccc(Cl)c(F)c1)NC12CCC(NC(=O)COc3ncnc4sccc34)(CC1)[C@@H](O)C2` [Compound 514, 2-(4-chloro-3-fluorophenoxy)-N-[(3S)-3-hydroxy-4-{2-[(thieno[2,3-d]pyrimidin-4-yl)oxy]acetamido}bicyclo[2.2.2]octan-1-yl]acetamide], the pEC50 was 7.30 to 8.00.
On to `O=C(COc1ccc(Cl)c(F)c1)NC12CCC(NC(=O)COc3ccc(Cl)c(F)c3)(CC1)C(CCO)C2` (stereo not drawn) [Compound 643, N,N′-[2-(2-hydroxyethyl)bicyclo[2.2.2]octane-1,4-diyl]bis[2-(4-chloro-3-fluorophenoxy)acetamide]], for which the negative-log EC50 (pEC50) was over 8.00.
As to `O=C(COc1ccc(Cl)c(F)c1)N[C@]12CC[C@H](C1)[C@@H](NCCOc1ccc(Cl)c(F)c1)[C@H](O)C2` (racemic) [Compound 649, rac-2-(4-chloro-3-fluorophenoxy)-N-[(1R,3R,4R,5R)-4-{[2-(4-chloro-3-fluorophenoxy)ethyl]amino}-3-hydroxybicyclo[3.2.1]octan-1-yl]acetamide], the pEC50 is over 8.00.
For the molecule `O=C(COc1ccc(Cl)c(F)c1)NC12CC(NS(=O)(=O)CCOc3ccccc3F)(C1)C2` [Compound 485, 2-(4-chloro-3-fluorophenoxy)-N-(3-{[2-(2-fluorophenoxy)ethanesulfonyl]amino}bicyclo[1.1.1]pentan-1-yl)acetamide], the pEC50 is 5.70 to 6.30.
Next, `Cc1ncc2c(c1OCC(=O)NC13CCC(NC(=O)COc4ccc(Cl)c(F)c4)(CC1)C[C@@H]3O)COC2` [Compound 499, 2-(4-chloro-3-fluorophenoxy)-N-[(3S)-3-hydroxy-4-{2-[(6-methyl-1,3-dihydrofuro[3,4-c]pyridin-7-yl)oxy]acetamido}bicyclo[2.2.2]octan-1-yl]acetamide]: under 5.70; `CC(=O)c1ccc(OCC(=O)NC23CC(NC(=O)COc4ccc(Cl)c(F)c4)(C2)C3)cn1` [Compound 235, 2-[(6-acetylpyridin-3-yl)oxy]-N-{3-[2-(4-chloro-3-fluorophenoxy)acetamido]0-bicyclo[1.1.1]pentan-1-yl}acetamide]: 6.60 to 7.30; `Cc1ccc(OCC(=O)NC23CCC(NC(=O)COc4ccc(F)c(F)c4)(CC2)[C@@H](O)C3)cc1F` [Compound 734, 2-(3,4-difluorophenoxy)-N-{(2S)-4-[2-(3-fluoro-4-methylphenoxy)acetamido]-2-hydroxybicyclo[2.2.2]octan-1-yl}acetamide]: over 8.00.
Consider `COc1cc(OCC(=O)NC23CC(NC(=O)COc4ccc(Cl)c(F)c4)(C2)C3)ccc1Cl` [Compound 126, 2-(4-chloro-3-fluorophenoxy)-N-{3-[2-(4-chloro-3-methoxyphenoxy)acetamido]-bicyclo[1.1.1]pentan-1-yl}acetamide], for which the pEC50 is over 8.00.
As for `O=C(COc1ccc(Cl)c(F)c1)NC12CC(NC(=O)C(OCCO)c3ccc(F)cc3)(C1)C2` (stereo not drawn) [Compound 779, N-{3-[2-(4-chloro-3-fluorophenoxy)acetamido]bicyclo[1.1.1]pentan-1-yl}-2-(4-fluorophenyl)-2-(2-hydroxyethoxy)acetamide], the negative-log EC50 (pEC50) was under 5.70.
Next, `O=C(COc1ccc(Cl)c(F)c1)NC12CC(NC(=O)COc3ccc(OC(F)(F)F)c(F)c3)(C1)C2` [Compound 415, 2-(4-chloro-3-fluorophenoxy)-N-(3-{2-[3-fluoro-4-(trifluoromethoxy)phenoxy]acetamido}bicyclo[1.1.1]pentan-1-yl)acetamide]: over 8.00.
